Source: patent publication US5854252A, “Dihalotriazolopyrimidine derivatives” (Shell Internationale Research Maatschappij B.V., priority 1993, dated 1998)
In brackets after ≈: the same amount, converted by molar mass.

Experiments:
[1] = test system: Leptosphaeria nodorum; assay: Activity against wheat leafspot (LN), Example 54(e); format: in vivo; details: therapeutic foliar spray as under (a) (600 ppm)
Procedure: The test is a direct therapeutic one using a foliar spray. Wheat seedlings (cv Norman), at the single leaf stage, are inoculated with an aqueous suspension containing 1.5×10^6 conidia/ml. The inoculated plants are kept for 24 hours at 20° C. in a high humidity cabinet, followed by spraying with the test compound as described under (a). After drying, the plants are kept for 6-8 days in the glasshouse at 22° C. and 70% relative humidity. Assessment is based on the density of lesions per leaf compared with that on leaves of control plants. The extent of disease control in all the above tests is expressed as a rating compared with either an untreated control or a diluent-sprayed-control, according to the criteria: […]

[2] = test system: Pseudocercosporella herpotrichoides; assay: Activity against wheat eyespot in-vitro (PHI), Example 53(j); format: cell-based; details: 50 ppm, 12 days at 20° C.
Procedure: This test measures the in vitro activity of compounds against the fungus causing wheat eyespot. The test compound is dissolved or suspended in acetone and is added into 4 ml aliquots of half strength Potato Dextrose Broth dispensed in 25-compartment petri dishes to give a final concentration of 50 ppm compound and 2.5% acetone. Each compartment is inoculated with a 6 mm diameter plug of agar/mycelium taken from a 14 day old culture of P. herpotrichoides. Plates are incubated at 20° C. for 12 days until the assessment of mycelial growth. The extent of disease control in all the above tests is expressed as a rating compared with either an untreated control or a diluent-sprayed-control, according to the criteria: […]

[3] = test system: Plasmopara viticola; assay: Antisporulant activity against vine downy mildew (PVA), Example 53(a); format: in vivo; details: antisporulant foliar spray, 1000 ppm
Procedure: The test is a direct antisporulant one using a foliar spray. The lower surface of leaves of whole vine plants (cv Cabernet Sauvignon) are inoculated by spraying with an aqueous suspension containing 2.5×10^4 zoosporangia/ml two days prior to treatment with the test compound. The inoculated plants are kept for 24 hours in a high humidity compartment, then 24 hours at glasshouse ambient temperature and humidity. Infected leaves are sprayed on their lower surfaces with a solution of active material in 1:1 water/acetone containing 0.04% "TWEEN 20" (Trade Mark; a polyoxyethylene sorbitan ester surfactant). Plants are treated using an automated sprayline with an atomising nozzle. The concentration of the compound is 1000 ppm, and the spray volume is 700 l/ha. After spraying, the plants are returned to normal glasshouse conditions for 96 hours and are then transferred to the high humidity cabinet for 24 hours to induce sporulation, prior to assessment. Assessment is based on the percentage of the leaf area covered by sporulation compared with that on control leaves. The extent of disease control in all the above tests is expressed as a rating compared with either an untreated control or a diluent-sprayed-control, according to the criteria: […]

[4] = test system: Puccinia arachidis; assay: Field pot test with Puccinia arachidis on peanuts; format: in vivo; details: topical, 456 h, 500 μg/ml spray, 1000 l/ha, 19 days after treatment, Abbott formula, read-out: % efficacy Puccinia arachidis
Procedure: 15 seeds of peanuts were sown in pots filled with a soil substrate. When the plants have developed 4 true leaves the fungicides and the test compounds were applied using a hand sprayer. The test compounds were applied at a concentration of 500 μg/ml in a […] containing 10% acetone and 0.05% Triton X 155 in water. The total amount of […] corresponded to 1000 l/ha. Six replicates per treatment were used. 2 Days after treatment the pots were exposed to peanut plants in the field on which the fungus, Puccinia arachidis, had formed sporulating pustules on the leaves. The assessment was carried out 19 days after treatment by estimating the percentage of infected leaf area. The % efficacy was calculated using the Abbott formula.

[5] = test system: Cercospora arachidicola; assay: Field pot test with Cercospora arachidicola on peanuts; format: in vivo; details: Mycosphaerella arachidis, topical, 360 h, 500 μg/ml spray, 1000 l/ha, 15 days after treatment, Abbott formula, read-out: % efficacy Cercospora arachidicola
Procedure: 15 Seeds of peanuts were sown in pots filled with a soil substrate. When the plants have developed 4 true leaves (approx. 12-14 days after seeding) the fungicides and the test compounds were applied using a hand sprayer. The test compounds were applied at a concentration of 500 μg/ml in a […] containing 10% acetone and 0.05% Triton X 155 in water. The total amount of […] corresponded to 1000 l/ha. Six replicates (pots) per treatment were used. 2 days after treatment the pots were exposed to peanut plants in the field on which the fungus, Cercospora arachidicola, had formed sporulating lesions. The assessment was carried out 15 days after treatment by estimating the percentage of infected leaf area. The % efficacy was calculated using the Abbott formula.

[6] = test system: Pyricularia oryzae; format: in vivo; details: rice, therapeutic foliar spray, 1000 ppm
[7] = test system: Gaeumannomyces graminis; assay: MIC by serial dilution, Example 55, Gaeumannomyces graminis; format: cell-based; details: microtitre plates, 20° C., 6-8 days
Procedure: (§1) The MIC (Minimum Inhibition Concentration)-values were determined by serial dilution tests using 48-well microtitre plates. The dilution of the test compounds in the nutrient solution and the distribution to the wells were carried out by a TECAN RSP 5000 robotic sample processor.
(§2) For preparation of the nutrient solution, V8 juice (Trade Mark) was neutralised with calcium carbonate and centrifuged. The supernatant was diluted with distilled water (1:5) to the final concentration.
(§3) The fungi (Alternaria solani, Botrytis cinerea, Pseudocercosporella herpotrichoides, Micronectriella nivalis, Gaeumannomyces graminis) were added into the wells as a droplet of spore suspension. The microtitre plates were then incubated at 20° C. for 6-8 days. The MIC-value, which was defined to be the lowest concentration in the dilution series without mycelial growth, was determined by visual inspection of the plates.

[8] = test system: Pseudocercosporella herpotrichoides; assay: MIC by serial dilution, Example 55, Pseudocercosporella herpotrichoides; format: cell-based; details: Oculimacula yallundae; microtitre plates, 20° C., 6-8 days
Procedure: as §1, §2, §3

[9] = test system: Micronectriella nivalis; assay: MIC by serial dilution, Example 55, Micronectriella nivalis; format: cell-based; details: microtitre plates, 20° C., 6-8 days
Procedure: as §1, §2, §3

[10] = test system: Erysiphe graminis f.sp. hordei; assay: Activity against barley powdery mildew (EG), Example 53(h); format: in vivo; details: therapeutic foliar spray, 1000 ppm
Procedure: The test is a direct therapeutic one, using a foliar spray. Leaves of barley seedlings, (cv. Golden Promise) are inoculated by dusting with mildew conidia one day prior to treatment with the test compound. The inoculated plants are kept overnight at glasshouse ambient temperature and humidity prior to treatment. The plants are sprayed with the test compound at a dosage of 1000 ppm using an automated sprayline as described under (a). After drying, plants are returned to a compartment at 20°-25 ° C. and moderate humidity for up to 7 days, followed by assessment. Assessment is based on the percentage of leaf area covered by sporulation compared with that on leaves of control plants. The extent of disease control in all the above tests is expressed as a rating compared with either an untreated control or a diluent-sprayed-control, according to the criteria: […]

[11] = test system: Plasmopara viticola; assay: Antisporulant activity against vine downy mildew (PVA), Example 54(a); format: in vivo; details: antisporulant foliar spray, 600 ppm
Procedure: The test is a direct antisporulant one using a foliar spray. The lower surface of leaves of vine plants (cv. Cabernet Sauvignon), approximately 8 cm high, are inoculated with an aqueous suspension containing 5×10^4 zoosporangia/ml. The inoculated plants are kept for 24 hours at 21° C. in a high humidity cabinet, then for 24 hours in a glasshouse at 20° C. and 40% relative humidity. Infected leaves are sprayed on their lower surfaces with a solution of the test compound in 1:1 water/acetone containing 0.04% "TWEEN 20" (Trade Mark; a polyoxyethylene sorbitan ester surfactant). Plants are sprayed using a track sprayer equipped with 2 air-atomising nozzles. The concentration of the compound is 600 ppm and the spray volume is 750 l/ha. After drying, the plants are returned to the glasshouse at 20° C. and 40% relative humidity for 96 hours and are then transferred to the high humidity cabinet for 24 hours to induce sporulation. Assessment is based on the percentage of the leaf area covered by sporulation compared with that on control leaves. The extent of disease control in all the above tests is expressed as a rating compared with either an untreated control or a diluent-sprayed-control, according to the criteria: […]

Row | SMILES | LN (disease control rating) [1] | Fungicidal Activity PHI (disease control rating) [2] | MIC [7] [µg/mL] | MIC [8] [µg/mL] | MIC [9] [µg/mL] | also measured
1 | Clc1ccccc1-c1c(Br)nc2ncnn2c1Br [Example 2, 5,7-dibromo-6-(2-chlorophenyl)-1,2,4-triazolo[1,5a]pyrimidine] | 1 (50-80% disease control) |  |  |  |  | 
2 | Clc1nc2ncnn2c(Cl)c1-c1ccccc1OCc1ccccc1 [Example 20] |  | 1 (about 50-80% disease control) |  |  |  | Fungicidal Activity PVA (disease control rating) [3]: 2 (greater than 80% disease control)
3 | CC(C)c1ccc(-c2c(Cl)nc3ncnn3c2Cl)cc1 [Example 8] |  | 2 (greater than 80% disease control) |  |  |  | pest or weed control at 500 µg/mL [4]: 17%; pest or weed control at 500 µg/mL [5]: 33%; Fungicidal Activity PO (disease control rating) [6]: 1 (about 50-80% disease control)
4 | Clc1nc2ncnn2c(Cl)c1-c1cccs1 [Example 26] |  | 2 (greater than 80% disease control) | 0.39 (≈ 1.44 µM) | 6.25 (≈ 23.1 µM) | 0.78 (≈ 2.88 µM) | Fungicidal Activity EG (disease control rating) [10]: 1 (about 50-80% disease control)
5 | Clc1ccc(-c2c(Cl)nc3ncnn3c2Cl)c(Cl)c1 [Example 35] | 1 (50-80% disease control) |  | 0.39 (≈ 1.17 µM) | 6.25 (≈ 18.7 µM) | 0.39 (≈ 1.17 µM) | 
6 | Cc1ccccc1-c1c(Cl)nc2ncnn2c1Cl [Example 29] |  |  | 1.56 (≈ 5.59 µM) | 12.5 (≈ 44.8 µM) | 6.25 (≈ 22.4 µM) | PVA (disease control rating) [11]: 1 (50-80% disease control)
